Measurements reported in ChEMBL document CHEMBL1629576, “Microanalysis of beta-lactam antibiotics and vancomycin in plasma for pharmacokinetic studies in neonates” (Antimicrob Agents Chemother, 2009).
Values belong to the compound of their own block, whether it stands above or below them.

Assays:
Assay type in all cases: ADME, organism-based
[1] = Elimination rate constant in extracorporeal membrane oxygenation-treated human neonatal plasma at 25 mg/kg QID by UPLC-MS/MS analysis; set-up: dose 25 mg/kg
[2] = Volume of distribution in extracorporeal membrane oxygenation-treated human neonatal plasma at 25 mg/kg SID by UPLC-MS/MS analysis; set-up: dose 25 mg/kg
Plasma [3] = assay: Volume of distribution in extracorporeal membrane oxygenation-treated human neonatal plasma at 20 mg/kg, po by UPLC-MS/MS analysis; set-up: dose 20 mg/kg, route oral; conditions: in vivo
Plasma [4] = assay: Intercompartmental clearance rate from central to peripheral side of extracorporeal membrane oxygenation-treated human neonatal plasma at 20 mg/kg, po by UPLC-MS/MS analysis; set-up: dose 20 mg/kg, route oral; conditions: in vivo
Plasma [5] = assay: Intercompartmental clearance rate from peripheral to central side of extracorporeal membrane oxygenation-treated human neonatal plasma at 20 mg/kg, po by UPLC-MS/MS analysis; set-up: dose 20 mg/kg, route oral; conditions: in vivo
[6] = Elimination rate constant in extracorporeal membrane oxygenation-treated human neonatal plasma treatment at 50 mg/kg BID by UPLC-MS/MS analysis; set-up: dose 50 mg/kg
[7] = Volume of distribution in extracorporeal membrane oxygenation-treated human neonatal plasma at 50 mg/kg BID by UPLC-MS/MS analysis; set-up: dose 50 mg/kg

k el [1]: 9.17e-05 s⁻¹ | Vd [2]: 0.713 L/kg | Vd (Plasma [3]): 1.03 L/kg
Structure (SMILES): CC1(C)S[C@@H]2[C@H](NC(=O)[C@H](N)c3ccc(O)cc3)C(=O)N2[C@H]1C(=O)O [AMOXICILLIN]

Structure (SMILES): CN[C@H](CC(C)C)C(=O)N[C@H]1C(=O)N[C@@H](CC(N)=O)C(=O)N[C@H]2C(=O)N[C@H]3C(=O)N[C@H](C(=O)N[C@H](C(=O)O)c4cc(O)cc(O)c4-c4cc3ccc4O)[C@H](O)c3ccc(c(Cl)c3)Oc3cc2cc(c3O[C@@H]2O[C@H](CO)[C@@H](O)[C@H](O)[C@H]2O[C@H]2C[C@](C)(N)[C@H](O)[C@H](C)O2)Oc2ccc(cc2Cl)[C@H]1O [VANCOMYCIN]
k12 (Plasma [4]): 1.5 h⁻¹ | k21 (Plasma [5]): 2.634 h⁻¹

k el [6]: 5.47e-05 s⁻¹ | Vd [7]: 0.912 L/kg
Structure (SMILES): CO/N=C(\C(=O)N[C@@H]1C(=O)N2C(C(=O)O)=C(COC(C)=O)CS[C@H]12)c1csc(N)n1 [CEFOTAXIME]
